{"source": "patent US20230364089A1", "about": "“COMPOUNDS AND COMPOSITIONS FOR THE TREATMENT OR PREVENTION OF PATHOLOGICAL CONDITIONS ASSOCIATED WITH EXCESS FIBRIN DEPOSITION AND/OR THROMBUS FORMATION” (Cereno Scientific AB, priority 2016, published 2023)", "key": {"[1]": {"system": "PAI-1", "test": "Plasma PAI-1 in in vivo model in mouse", "conditions": "in vivo model in mouse (unpublished data)"}, "[2]": {"test": "Example 3 clinical outcome study in high-risk patients: recurrent atherothrombotic events", "assay_type": "in vivo, human", "conditions": "400 mg valproic acid once daily at 11 pm, long-term, expected", "method": "A clinical outcome study is performed in high-risk patients who have experienced a recent major atherothrombotic cardiovascular event (myocardial infarction or TIA/ischemic stroke) to investigate the preventive effect of valproic acid treatment on the risk for recurrent events. The annual risk for a recurrent atherothrombotic event in the investigated population is estimated to approximately 7%. […] The event rate is monitored by Kaplan-Meyer statistics. The primary efficacy endpoint is the composite measure of either mortality, or non-fatal myocardial infarction or ischemic stroke. The study is event-driven to a total of 180 events. […] Thus, the study is expected to confirm the clinical efficacy and feasibility of using valproic acid for secondary prevention of cardiovascular disease."}, "[3]": {"system": "PAI-1", "test": "Proof-of-concept study 1: plasma PAI-1 before and after VPA in healthy subjects", "assay_type": "in vivo, human", "method": "(§1) The effects of VPA on PAI-1 were analysed in two different proof-of-concept studies in healthy subjects as well as in patients with manifest atherosclerotic disease. […] PAI-1 plasma levels were measured in the morning at the first day of the study as well as at the end of the treatment period with VPA (see example 2 for details on the PAI-1 analysis).\nIn the first study, 10 healthy non-smoking white male subjects (with mean BMI of approximately 26), aged 50-70 years were included and treated with valproic acid 500 mg (Ergenyl Retard, Sanofi) twice daily during 14 days."}, "[4]": {"system": "PAI-1", "test": "Example 2 intermediate endpoint study in patients with TIA/minor stroke: plasma PAI-1 and plasma valproic acid", "quoted_text": "An intermediate endpoint proof-of-concept study is performed in patients with TIA/minor stroke investigated before and after treatment with Valproic acid. Valproic acid is administrated as an enteric-coated tablet with delayed absorption.\nThe study comprises 20 patients with TIA/minor stroke. Patients are investigated before and after oral treatment with 400 mg valproic acid once time daily at 11 pm for 2 weeks. Plasma PAI-1 levels and plasma concentrations of valproic acid is followed daily during the study period at the following time-points: 3 am, 6 am, 10 am, 16 pm, 22 pm PAI-1 levels are measured by commercially available ELISA-kits (Coaliza PAI-1, ChromogenixAB) and the plasma concentration of valproic acid an metabolites thereof is analyzed according to clinical routine at the Sahlgrenska University laboratory, Gothenburg, Sweden."}, "[5]": {"system": "PAI-1", "conditions": "in vivo model in pig (Svennerholm et al., PLoS One 2014); cited from earlier work"}, "[6]": {"system": "cultured endothelial cells", "test": "PAI-1 mRNA / production in cultured endothelial cells after VPA treatment", "assay_type": "cell-based", "conditions": "no decrease of PAI-1 mRNA levels, slight but significant increase"}, "[7]": {"system": "PAI-1", "test": "Proof-of-concept study 2: plasma PAI-1 before and after VPA in patients with a history of myocardial infarction", "assay_type": "in vivo, human", "conditions": "midmorning; for reduction in circulating plasma PAI-1 levels: 16 male patients with history of myocardial infarction, valproic acid 500 mg (Ergenyl Retard) twice daily for 28 days on top of ordinary prescription, p=0.01", "method": "as §1\nIn the second study, 16 non-smoking white male patients, aged 50-80 years with a history of a myocardial infarction were included. On top of their ordinary prescription (beta-blocker, ACE-inhibitor, statin, aspirin) they were treated with valproic acid 500 mg (Ergenyl Retard, Sanofi), twice daily during 28 days."}, "[8]": {"conditions": "cited from earlier work"}, "[9]": {"conditions": "once daily (in healthy volunteers); cited from earlier work"}}, "note": "Where two headings read alike, the source gives them in different places.", "data": [{"compound": "CCCC(CCC)C(=O)O", "note": "[valproic acid, 2-propylpentanoic acid]", "values": [{"measurement": "effects on plasma PAI-1", "setting": "[1]", "result": "did not detect any effects"}, {"measurement": "reduction of risk for recurrent atherothrombotic event", "setting": "[2]; in addition to conventional therapy", "result": "approximately 30%"}, {"measurement": "annual absolute event rate", "setting": "[2]; approximately 7% estimated without treatment", "result": "approximately 5%"}, {"measurement": "reduction in circulating plasma PAI-1 levels", "setting": "[3]; 10 healthy men aged 50-70, valproic acid 500 mg (Ergenyl Retard) twice daily for 14 days, mid-morning vs before treatment, p<0.05", "result": "more than 50%"}, {"measurement": "circulating plasma PAI-1 level after treatment", "setting": "[3]; healthy men, valproic acid 500 mg twice daily for 14 days, mid-morning, 22.2 ng/ml before treatment", "result": 10.8, "unit": "ng/mL"}, {"measurement": "time of peak plasma concentration of valproic acid", "setting": "[4]; 400 mg valproic acid enteric-coated tablet with delayed absorption, oral once daily at 11 pm for 2 weeks", "result": "between 3 am and 6 am"}, {"measurement": "lowering of plasma PAI-1 levels after the treatment", "setting": "[4]; 400 mg valproic acid oral once daily at 11 pm for 2 weeks", "result": "approximately 30%"}, {"measurement": "effects on plasma PAI-1", "setting": "[5]", "result": "did not detect any effects"}, {"measurement": "increase in PAI-1 production", "setting": "[6]", "result": 30, "unit": "%"}, {"measurement": "reduction in circulating plasma PAI-1 levels", "setting": "[7]", "result": 45, "unit": "%"}, {"measurement": "reduction in circulating plasma PAI-1 levels", "setting": "[7]; listed as VPA", "result": "about 45%"}, {"measurement": "circulating plasma PAI-1 level after treatment", "setting": "[7]; patients with history of myocardial infarction, valproic acid 500 mg twice daily for 28 days, 19.6 ng/ml before treatment", "result": 11, "unit": "ng/mL"}]}, {"compound": "Cc1[nH]c2ccccc2c1CCNCc1ccc(/C=C/C(=O)NO)cc1", "note": "[Panobinostat, (E)-N-hydroxy-3-[4-[[2-(2-methyl-1H-indol-3-yl)ethylamino]methyl]phenyl]prop-2-enamide]", "values": [{"measurement": "MTD", "setting": "[8]; every other day", "result": 20, "unit": "mg every other day"}]}, {"compound": "O=C(/C=C/c1cccc(S(=O)(=O)Nc2ccccc2)c1)NO", "note": "[Belinostat, (2E)-3-[3-(anilinosulfonyl)phenyl]-N-hydroxy-acrylamide]", "values": [{"measurement": "MTD", "setting": "[8]; bidaily", "result": 1000, "unit": "mg bidaily"}]}, {"compound": "O=C(CCCCCCC(=O)Nc1ccccc1)NO", "note": "[Vorinostat, N-hydroxy-N′-phenyl-octanediamide]", "values": [{"measurement": "MTD", "setting": "[8]; once daily", "result": 400, "unit": "mg once daily"}]}, {"compound": "CCCCc1nc2cc(/C=C/C(=O)NO)ccc2n1CCN(CC)CC", "note": "[SB939, (2E)-3-{2-butyl-1-[2-(diethylamino)ethyl]-1H-benzimidazol-5-yl}-N-hydroxyacrylamide]", "values": [{"measurement": "MTD", "setting": "[8]; once daily", "result": 60, "unit": "mg once daily"}]}, {"compound": "CCN(CC)Cc1ccc2cc(COC(=O)Nc3ccc(C(=O)NO)cc3)ccc2c1.Cl", "note": "[Givinostat, {6-[(diethylamino)methyl]-naphthalen-2-yl}methyl[4-(hydroxycarbamoyl)phenyl]carbamate]", "values": [{"measurement": "MTD", "setting": "[9]", "result": "200 mg once daily (in healthy volunteers)"}]}]}
